Measurements published in US20160354781A1, “MICROFLUIDIC PLATE FOR SAMPLE PROCESSING” (National Taiwan University, priority 2015, published 2016).
≈ marks a conversion by molar mass, not a printed value.

Experiments:
[1] = test system: MDA-MB-231 cells; assay: Anticancer drug screening in the Micro-Gap Plate (MGP), viability by tri-fluorescent staining; format: cell-based; settings: Homo sapiens, 24 hour drug treatment, viability normalized against untreated cells, read-out: IC50 (concentration yielding a 50% decrease in normalized percentage cell viability)
Experimental: (§1) The anticancer drug screening of cell lines was conducted with MGP and on 96-well plates as control. Two typical breast cancer lines, MCF-7 (ATCC, HTB-22) and MDA-MB-231 (ATCC, HTB-26) were used. The reason to choose the two types of cancer cell lines was that MCF-7 stood for typical luminal type cancer cells while MDA-MB-231 stood for normal-like typically. By using the two cell lines in drug response assay on the microfluidic device, we could examine whether MGP was workable to both the two types of cancer cells since primary samples may have diversely cancer cell types. Anticancer drug screening using cell lines could confirm the feasibility of applying MGP to individualized chemosensitivity assay on primary patient samples. In addition, cell lines on MGP could help optimize the operation of drug response assay beforehand, which would reduce the difficulties when dealing with primary samples. Moreover, the method of viability assessment could be examined on MGP using cell lines since fluorescent images was one of most important factors to determine the viability of cancer cells after drug treatment. […]
Primary cells were suspended (16.7 cells/0.1 μL) in culture medium (the formula of culture medium is stated in the previous section). […] The volume of cell suspension in each unit was determined on the basis of the final density of cell suspension as stated in previous section. […]

[2] = test system: MDA-MB-231 cells; assay: Anticancer drug screening in 96-well plates (control), MTT assay; format: cell-based; settings: Homo sapiens, 96-well control, 24 hour drug treatment, read-out: IC50 (concentration yielding a 50% decrease in normalized percentage cell viability)
Experimental: as §1, with “samples.” for “samples. Moreover, the method of viability assessment could be examined on MGP using cell lines since fluorescent images was one of most important factors to determine the viability of cancer cells after drug treatment.”
Anticancer drug screening was also conducted using conventional 96-well plates as controls. […] The quantity of cells in single well was determined to coordinate the same cell-to-substrate ratio as in MGP (1000 cells/1.766 mm2). […] Finally, a plate reader (MQX 200, BioTek) was used to determine the absorbance of the DMSO at 570 nm, which was used to determine the number of living cells. […]

CC(=O)O[C@@]12CO[C@@H]1C[C@H](O)[C@@]1(C)C(=O)[C@H](O)C3=C(C)[C@@H](OC(=O)[C@H](O)[C@@H](NC(=O)OC(C)(C)C)c4ccccc4)C[C@@](O)([C@@H](OC(=O)c4ccccc4)[C@H]21)C3(C)C [docetaxel]
IC50 [1]: 23.4 µg/mL (≈ 29 µM) | IC50 [2]: 25.4 µg/mL (≈ 31.4 µM)
